The source of these data is PMC7503308, “A Novel Urease Inhibitor of Ruminal Microbiota Screened through Molecular Docking” (International Journal of Molecular Sciences, 2020).

Read-outs that look alike come from different tables or passages of the source.

For one series, the system named is rumen microbiota. More on the design: method as in PMID 10682821. Particulars: cows with permanent rumen fistula, cited from earlier work.
In series [1] the test system is ruminal microbiota. Particulars: cited from earlier work.
Another series has as its system ruminal microbial urease. Description: Urease inhibition assay (Berthelot alkaline phenol-hypochlorite method). Type of series: biochemical, rumen bacteria of Chinese Holstein dairy cows. Particulars: ruminal microbial urease, 37 °C, 30 min, pH 7.5. The protocol: Rumen fluid samples were collected from five Chinese Holstein dairy cows with permanent rumen fistula 3 h after feeding a total mixed ration in the morning. All the operations were conducted in accordance with the protocol approved by the Animal Care and Use Committee for Livestock of the Institute of Animal Sciences, Chinese Academy of Agricultural Sciences (Permit Number: IAS2019-14, Permit Date: 22-03-2019). All rumen fluid samples were filtered by a six layer sterilized medical gauze and mixed in a sterilized beaker before being evenly distributed into different 50 mL tubes and stored in liquid nitrogen. The deforested samples were centrifuged at 12,000× g for 10 min at 4 °C, then the supernatant was removed from the tube. The remaining sediments were resuspended in a HEPES buffer solution (pH 7.5, 50 mM) and then centrifuged at 12,000× g for 10 min at 4 °C. The supernatant was discarded and the remaining rumen bacteria were collected and stored at −80 °C for later urease extraction. All the sample handing processes were conducted on an ice bath. […]
In vitro urease inhibition screening assays were conducted to further narrow the virtual screened compounds for further IC50 determination and kinetic characterization. […] The ammonia that was produced was measured using 50 μL of a phenol reagent containing 10.0 g/L phenol and 50 mg/L of sodium nitroprusside, and 50 μL of alkali reagent containing 5 g/L sodium hydroxide and 8.4 mL/L of sodium hypochlorite solution, at 37 °C for 30 min. The absorbance of each well was measured at 625 nm by a micro plate spectrophotometer (Thermo Scientific Varioskan Flash G-282, Thermo Scientific, Waltham, MA, USA). The endogenous nitrogen (blank) was measured by adding a 70 μL HEPES buffer (pH 7.5, 50 mM) containing no urea and 20 μL methanol solution in the first 30 min of the reaction mixture. The 100% initial activity was determined by adding a 15 μL methanol solution in the first 30 min of the reaction mixture. […]

In series [2] the test system is ruminal microbiota. Description: Ruminal microbial fermentation in vitro (six generations): urea and NH3-N. Format: cell-based, rumen fluid of Chinese Holstein dairy cows. Particulars: 100 μM compound, 24 h, p < 0.01. As for the experimental part: Seven solutions were prepared for the anaerobic media as solution A (3 g/L K2HPO4), solution B (0.6 g/L CaCl2, 3 g/L K2HPO4, 6 g/L NaCl, 0.6 g/L MgSO4·7H2O), solution C (6 g/L K2HPO4), solution D (1.6 g/L CaCl2·2H2O, 6 g/L K2HPO4, 12 g/L NaCl, 2.5 g/L MgSO4·7H2O), trace element solution (300 mg/L H3BO3, 100 mg/L ZnSO4·7H2O, 30 mg/L MnCl2·4H2O, 20 mg/L CoCl2·6H2O, 30 mg/L Na2MoO4·2H2O, 10 mg/L Na2SeO3, 20 mg/L NiCl2, 10 mg/L CuCl2·2H2O, 150 mg/L FeCl2·4H2O), volatile fatty acid (VFA) mixed solution (17 mL acetic acid, 6 mL propionic acid, 4 mL butyric acid, 1 mL n-valeric acid, 1 mL isovaleric acid, and 1 mL isobutyric acid), and hemin solution, prepared by diluting 50 mg of Haemon in NaOH (1 N solution) and made up to 100 mL with distilled water. Each liter of anaerobic media contained 30 mL of autoclaved rumen fluid supernatant, 0.5 g of glucose, 0.5 g of soluble starch, 0.5 g of cellobiose, 0.5 g of maltose, 0.5 g of […], 0.5 g of tripticase, 0.5 g of yeast extract, 8 g of NaHCO3, 0.1 mL of trace elements solution, 15 mL solution A, 15 mL solution B, 0.5 g of cysteine hydrochloride, 10 mL of hemin solution, 3.1 mL of VFA mixed solution, and 1 mg resazurin. The anaerobic urea solution was prepared using an anaerobic glove box, by dissolving 2.5 g of urea in a 50 mL anaerobic diluent. This diluent consisted of 3.8 mL of salt solution C, 3.8 mL of salt solution D, 5 mL of 8% sodium Na2CO3, 1 mL of 0.1% resazurin, 0.5 g of cysteine hydrochloride dissolved in distilled water and made up to 1000 mL and distributed into 50 mL anaerobic bottles. All the anaerobic bottles were sterilized by autoclave. Prior to the inoculation, fresh frozen rumen fluid samples, pretreated as described previously, were removed from the freezer, thawed, homogenized, and used immediately. […] Chromatographic gradients were referenced to the paper.

The test system of the next series is Caco-2 cells. As to the kind of experiment: CCK8 colorimetric cytotoxicity assay. Format: cell-based. Particulars: concentration below 100 μM, 24 h, p > 0.05. As for the experimental part: A standard CCK8 colorimetric assay was employed for the evaluation of cytotoxic activity of compound 6238-0047 using 96-well flat bottomed microplates. Dulbecco’s Modified Eagle Medium (GIBCO) with 10% FBS (fetal bovine serum, FBS, Gibco) and 1% NEAA was used for the culturing of Caco-2 cells (ATCC, Manassas, VA, USA), and the medium was supplemented with 100 μg/mL of streptomycin and 100 IU/mL of penicillin. The medium was kept in 5% CO2 and incubated at 37 °C. The exponentially grown cells were harvested, counted using a hemocytometer and diluted with the medium. The cell culture was diluted to a density of 1 × 10^5 cells/mL and transferred into a 96-well plate with 135 μL or […]. The medium was incubated for 24 h for cell attachment. Following this, 15 μL of compounds with different final concentrations of 1, 10, 25, 50, and 100 μM in the experimental group and fresh medium as a control group, were added to a plate with five replicates for each. After 24 h of incubation at 37 °C and kept in 5% CO2, 15 μL of CCK8 was added to each well and after 2 h the absorbance was measured at 450 nm using a microplate reader. The formula for calculating the relative cell viability was as follows:Relative cell viability (%) = absorbance of experimental group/absorbance of control group × 100%
A general note: Tetrazolium dyes change colour on reduction, which living cells bring about.

Details of series [3]: method as in PMID 19050709. Particulars: human patients; cited from earlier work.
In the next series the test system is H. pylori urease. On the set-up: method as in PMID 23567958. Particulars: cited from earlier work.
The test system of a further series is jack bean urease. More on the design: method as in PMID 17418881. Particulars: cited from earlier work.

With `CCCCNP(N)(N)=S` [NBPT, N-(n-butyl) thiophosphoric triamide], the entries for the “Ruminal ammonia nitrogen production vs control group” value in the series on rumen microbiota (fifteenth day of treatment) and with rumen microbiota (second day of treatment) were “tended to approach the control group” and “lower than that of the control group”, respectively.
`CC(=O)NO` [AHA, acetohydroxamic acid, reference compound]: the AHA degradation in the series with ruminal microbiota [1] is 100%. In addition, the IC50 – broadly, the midpoint of a concentration-inhibition curve – in the series on ruminal microbial urease is 158 µM; in the series with H. pylori urease, 18.2 µM; in the series on jack bean urease it was 60 µM. The “Amount of urea degradation vs control group” value in the series with ruminal microbiota [2] (16.65 mM urea) is “significantly lowered the amount of urea degradation”. The “NH3-N concentration / production vs control group” value in the series on ruminal microbiota [2] was “significantly lower than the control group”. For the same compound, in the series with Caco-2 cells, the “Relative cell viability of Caco-2 cell culture” value is “no significant influence”. In addition, in series [3], the “Patients with dermatological, neurological or hematological issues necessitating discontinuation of therapy” value is listed as “more than 20%”.
